Measurements as given in patent US12570648B2, “6,7-dihydro-5H-pyrido[2,3-c]pyridazine derivatives and related compounds as Bcl-xL protein inhibitors and pro-apoptotic agents for treating cancer” (LES LABORATOIRES SERVIER, priority 2019, dated 2026).
pIC50, pKi: −log10 of the molar value.

Legend:
[1] = biological target: GST(1-218)-(FACTOR_XA)-hsBCLXL(2-209) (Homo sapiens (Human), UniProt Q07817); assay: Fluorescence polarisation assay; type: binding
Description: Fluorescence polarization measures the rotation of a fluorescing species in solution, the larger the molecule the more polarized the fluorescence emission.
(GST UniProtKB® primary accession number P08515 and BCLXL UniProtKB® primary accession number Q07817-1), • resulting in an increase in anisotropy. If a compound is added which competitively binds to the same site as the probe, thereby releasing it, anisotropy decreases due to the increased amount of free probe.
An 11-point serial dilution of each compound was prepared in DMSO, the final buffer conditions were 10 mM 4-(2-hydroxyethyl)-1-piperazineethanesulfonic acid [HEPES], 150 mM NaCl, 0.05% Tween 20, pH 7.4 and 5% DMSO. The final protein concentration in the assay was 20 nM with the fluorescent probe present at 10 nM. […] 1; 37 (WebServer issue): W441-W445.

[2] = biological target: His-His-(EK)-hsBCLXL(2-197)[N197C] (Homo sapiens (Human), UniProt Q07817, N197C); assay: Fluorescence quenching assay; type: binding; details: 1 nM Cy5-labelled protein, 400 nM PUMA peptide, 2 hours at 23° C.; KI determined from IC50
Chain of His-His-(EK)-hsBCLXL(2-197)[N197C] (Q07817 2-197 N197C): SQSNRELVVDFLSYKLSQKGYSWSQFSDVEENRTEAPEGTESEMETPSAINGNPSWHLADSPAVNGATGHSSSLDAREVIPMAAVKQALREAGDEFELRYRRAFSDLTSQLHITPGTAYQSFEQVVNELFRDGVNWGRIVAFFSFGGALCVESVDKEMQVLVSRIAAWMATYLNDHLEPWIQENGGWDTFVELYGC
Method in brief: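 Ki values converted from IC50s, measured as fluorescence increase (Ex 620/Em 680 nm) after 2 h at 23° C. Compounds were titrated over 11 points against 1 nM Cy5-BCL-xL and 400 nM quencher-tagged PUMA peptide in pH 7.4 HEPES (10 mM), 150 mM NaCl, 0.05% Tween 20, 5% DMSO.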

[3] = tested on: H146 cells; assay: H146 cell viability using MTT assay; type: cell-based; details: Homo sapiens, NCI-H146, 48 h exposure
Method in brief: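 IC50 comes from four-parameter fits of optical density at 540 nm. Readout used 4 h MTT reduction followed by overnight SDS/HCl solubilisation, after 48 h compound exposure across nine 3.16-fold dilutions in triplicate. Culture medium was RPMI 1640 with 10% heat-inactivated FBS, antibiotics and L-glutamine.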

[4] = tested on: MOLT-4 cells; assay: MOLT-4 cell viability using MTT assay; type: cell-based; details: Homo sapiens, MOLT-4, 48 h, 48 h exposure
Description: MTT colorimetric assay is based on the mitochondrial reduction of tetrazolium salt by living cells.
Cells were cultured at 37° C. in a humidified atmosphere containing 5% CO2. […] At the end of incubation time, 15 μL of MTT solution (5 mg/ml) were added per well and the cells were incubated for another 4 h. […] IC50s were calculated using standard four-parametric curve fitting.

[5] = tested on: pre-clinical models of T-ALL and different types of solid tumors; details: cited from earlier work

Chain of GST(1-218)-(FACTOR_XA)-hsBCLXL(2-209) (Q07817 other isoform, or with tags, fused parts or gaps): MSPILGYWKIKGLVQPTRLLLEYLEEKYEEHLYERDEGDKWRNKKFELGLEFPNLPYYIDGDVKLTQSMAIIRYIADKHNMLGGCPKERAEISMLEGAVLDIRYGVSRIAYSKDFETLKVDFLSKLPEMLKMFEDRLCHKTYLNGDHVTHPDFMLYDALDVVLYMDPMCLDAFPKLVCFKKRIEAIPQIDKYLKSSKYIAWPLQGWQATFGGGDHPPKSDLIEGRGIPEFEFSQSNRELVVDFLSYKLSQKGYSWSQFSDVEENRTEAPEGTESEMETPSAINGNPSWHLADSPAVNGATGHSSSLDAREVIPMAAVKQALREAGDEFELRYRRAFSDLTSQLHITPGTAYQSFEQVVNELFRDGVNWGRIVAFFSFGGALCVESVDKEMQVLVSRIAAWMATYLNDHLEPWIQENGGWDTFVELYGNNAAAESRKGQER

| pKi [1] | pKi [2] | pIC50 [3] | pIC50 [4] | Structure (SMILES) | in vivo activity [5] |
| --- | --- | --- | --- | --- | --- |
| > 9.00 | 11.77 | 8.26 | – | Cc1c(Nc2nc3ccccc3s2)nnc2c1CCCN2c1nc(C(=O)O)c(CCCOc2ccc(CCCN(C)C)cc2F)s1 [Example 36, 2-{3-[(1,3-Benzothiazol-2-yl)amino]-4-methyl-5H,6H,7H,8H-pyrido[2,3-c]pyridazin-8-yl}-5-(3-{4-[3-(dimethylamino)propyl]-2-fluorophenoxy}propyl)-1,3-thiazole-4-carboxylic acid] | – |
| 5.80 | – | < 4.82 | 5.37 | Cc1c(Nc2nc3ccccc3s2)nnc2c1CCCN2c1cccc(C(=O)O)n1 [Example 21, 6-{3-[(1,3-Benzothiazol-2-yl)amino]-4-methyl-5H,6H,7H,8H-pyrido[2,3-c]pyridazin-8-yl}pyridine-2-carboxylic acid] | – |
| > 9.00 | 11.07 | 8.19 | – | Cc1c(Nc2nc3ccccc3s2)nnc2c1CCCN2c1nc(C(=O)O)c(CCCOc2ccc(C#CCN(C)C)cc2F)s1 [Example 27, 2-[3-(1,3-Benzothiazol-2-ylamino)-4-methyl-6,7-dihydro-5H-pyrido[2,3-c]pyridazin-8-yl]-5-[3-[4-[3-(dimethylamino)prop-1-ynyl]-2-fluoro-phenoxy]propyl]thiazole-4-carboxylic acid] | – |
| – | – | – | – | CN(C)CC#Cc1ccc(OCCCc2sc(N3CCc4cccc(C(=O)Nc5nc6ccccc6s5)c4C3)nc2C(=O)O)c(F)c1 [Example A-1155463] | exhibited in vivo activity |
| 4.82 | – | < 4.82 | ≤ 4.87 | Cc1c(Nc2nc3ccccc3s2)nnc2c1CCCN2c1cccc(C(=O)O)c1 [Example 26, 3-{3-[(1,3-Benzothiazol-2-yl)amino]-4-methyl-5H,6H,7H,8H-pyrido[2,3-c]pyridazin-8-yl}benzoic acid] | – |
| 8.64 | – | 5.59 | 5.98 | Cc1c(Nc2nc3ccccc3s2)nnc2c1CCCN2c1nc(C(=O)O)cs1 [Example 15, 2-{3-[(1,3-Benzothiazol-2-yl)amino]-4-methyl-5H,6H,7H,8H-pyrido[2,3-c]pyridazin-8-yl}-1,3-thiazole-4-carboxylic acid] | – |
| 8.26 | – | 5.51 | 6.34 | COCCCC1(Cn2ncc(-c3sc(N4CCc5c4nnc(Nc4nc6ccccc6s4)c5C)nc3C(=O)O)c2C)CCCCCCC1 [Example 14, 2-{3-[(1,3-Benzothiazol-2-yl)amino]-4-methyl-5H,6H,7H-pyrrolo[2,3-c]pyridazin-7-yl}-5-(1-{[1-(3-methoxypropyl)cyclooctyl]methyl}-5-methyl-1H-pyrazol-4-yl)-1,3-thiazole-4-carboxylic acid] | – |
| 6.68 | – | < 4.82 | < 4.82 | O=C(O)c1csc(N2CCc3cc(Nc4nc5ccccc5s4)nnc32)n1 [Example 10, 2-{3-[(1,3-Benzothiazol-2-yl)amino]-5H,6H,7H-pyrrolo[2,3-c]pyridazin-7-yl}-1,3-thiazole-4-carboxylic acid] | – |
| 8.52 | 10.60 | 7.90 | 8.47 | Cc1c(Nc2nc3ccccc3s2)nnc2c1CCN2c1nc(C(=O)O)c(CCCOc2ccc(C#CCN(C)C)cc2F)s1 [Example 22, 2-{3-[(1,3-Benzothiazol-2-yl)amino]-4-methyl-5H,6H,7H-pyrrolo[2,3-c]pyridazin-7-yl}-5-(3-{4-[3-(dimethylamino)prop-1-yn-1-yl]-2-fluorophenoxy}propyl)-1,3-thiazole-4-carboxylic acid] | – |
| > 9.00 | 11.34 | – | 9.01 | CNCC#Cc1ccc(OCCCc2sc(N3CCCc4c3nnc(Nc3nc5ccccc5s3)c4C)nc2C(=O)O)c(F)c1 [Example 32, 2-{3-[(1,3-Benzothiazol-2-yl)amino]-4-methyl-5H,6H,7H,8H-pyrido[2,3-c]pyridazin-8-yl}-5-(3-{2-fluoro-4-[3-(methylamino)prop-1-yn-1-yl]phenoxy}propyl)-1,3-thiazole-4-carboxylic acid] | – |
| 8.96 | 10.29 | 8.56 | 9.02 | Cc1c(Nc2nc3ccccc3s2)nnc2c1ccn2-c1ccc(-c2cnn(CC34CC5CC(CC(C5)C3)C4)c2C)c(C(=O)O)n1 [Example 23] | – |
| 8.26 | 8.85 | – | – | Cc1c(Nc2nc3ccccc3s2)nnc2c1C[C@@H](O)CN2c1nc(C(=O)O)cs1 [Example 33, 2-[(6R)-3-[(1,3-Benzothiazol-2-yl)amino]-6-hydroxy-4-methyl-5H,6H,7H,8H-pyrido[2,3-c]pyridazin-8-yl]-1,3-thiazole-4-carboxylic acid] | – |
| 7.85 | – | 5.50 | 6.06 | O=C(O)c1csc(N2CCc3c2nnc(Nc2nc4ccccc4s2)c3C2CC2)n1 [Example 28, 2-{3-[(1,3-Benzothiazol-2-yl)amino]-4-cyclopropyl-5H,6H,7H-pyrrolo[2,3-c]pyridazin-7-yl}-1,3-thiazole-4-carboxylic acid] | – |
| 8.04 | – | 6.10 | 6.90 | Cc1c(Nc2nc3ccccc3s2)nnc2c1CCN2c1nc(C(=O)O)c(-c2cnn(CC34CC5CC(CC(C5)C3)C4)c2C)s1 [Example 13, 5-{1-[(Adamantan-1-yl)methyl]-5-methyl-1H-pyrazol-4-yl}-2-{3-[(1,3-benzothiazol-2-yl)amino]-4-methyl-5H,6H,7H-pyrrolo[2,3-c]pyridazin-7-yl}-1,3-thiazole-4-carboxylic acid] | – |
| > 9.00 | 11.44 | 8.18 | 9.11 | CN(C)CC#Cc1ccc(OCCCc2sc(N3CCCc4c3nnc(Nc3nc5ccccc5s3)c4C3CC3)nc2C(=O)O)c(F)c1 [Example 30, 2-{3-[(1,3-Benzothiazol-2-yl)amino]-4-cyclopropyl-5H,6H,7H,8H-pyrido[2,3-c]pyridazin-8-yl}-5-(3-{4-[3-(dimethylamino)prop-1-yn-1-yl]-2-fluorophenoxy}propyl)-1,3-thiazole-4-carboxylic acid] | – |
| 8.70 | – | 6.41 | 6.89 | COCCCC1(Cn2ncc(-c3sc(N4CCc5c4nnc(Nc4nc6ccccc6s4)c5C)nc3C(=O)O)c2C)CCCCC1 [Example 17, 2-{3-[(1,3-Benzothiazol-2-yl)amino]-4-methyl-5H,6H,7H-pyrrolo[2,3-c]pyridazin-7-yl}-5-(1-{[1-(3-methoxypropyl)cyclohexyl]methyl}-5-methyl-1H-pyrazol-4-yl)-1,3-thiazole-4-carboxylic acid] | – |
| 7.89 | – | 5.63 | – | O=C(O)c1nc(-n2ccc3cc(Nc4nc5ccccc5s4)nnc32)sc1CCCOc1ccccc1F [Example 9, 2-{3-[(1,3-Benzothiazol-2-yl)amino]-7H-pyrrolo[2,3-c]pyridazin-7-yl}-5-[3-(2-fluorophenoxy)propyl]-1,3-thiazole-4-carboxylic acid] | – |
| > 9.00 | 11.11 | 7.20 | 7.52 | Cc1c(Nc2nc3ccccc3s2)nnc2c1CCCN2c1nc(C(=O)O)c(CCCOc2ccc(CN)cc2F)s1 [Example 35, 5-{3-[4-(Aminomethyl)-2-fluorophenoxy]propyl}-2-{3-[(1,3-benzothiazol-2-yl)amino]-4-methyl-5H,6H,7H,8H-pyrido[2,3-c]pyridazin-8-yl}-1,3-thiazole-4-carboxylic acid] | – |
| 7.07 | – | 5.51 | 6.79 | Cc1c(Nc2nc3ccccc3s2)nnc2c1CCN2c1cccc(C(=O)O)n1 [Example 20, 6-{3-[(1,3-Benzothiazol-2-yl)amino]-4-methyl-5H,6H,7H-pyrrolo[2,3-c]pyridazin-7-yl}pyridine-2-carboxylic acid] | – |
| > 9.00 | 11.09 | 7.05 | 7.83 | Cc1c(Nc2nc3ccccc3s2)nnc2c1CCCCN2c1nc(C(=O)O)c(CCCOc2ccc(C#CCN(C)C)cc2F)s1 [Example 31, 2-{3-[(1,3-Benzothiazol-2-yl)amino]-4-methyl-5H,6H,7H,8H,9H-pyridazino[3,4-b]azepin-9-yl}-5-(3-{4-[3-(dimethylamino)prop-1-yn-1-yl]-2-fluorophenoxy}propyl)-1,3-thiazole-4-carboxylic acid] | – |
| 5.48 | – | – | – | Cc1nc(Nc2nnc3c(c2C)CCN3c2nc(C(=O)O)cs2)sc1C [Example 19, 2-{3-[(4,5-Dimethyl-1,3-thiazol-2-yl)amino]-4-methyl-5H,6H,7H-pyrrolo[2,3-c]pyridazin-7-yl}-1,3-thiazole-4-carboxylic acid] | – |
